Measurements from PMC4912077 (PLoS ONE, 2016).
Several values for one entry are separate records, joined by “and”; a condition that tells them apart may be missing. Equal entries are not always repeated. Structures can show the parent of a compound that is named as a salt.

What was measured:
[1] = biological target: Alpha2A (Homo sapiens, UniProt P08913); assay: NIMH PDSP radioligand binding, Alpha2A
Experimental: (§1) Radioligands and concentrations used for additional 45 CNS receptor binding assays are listed as supporting information (S1 Table). This work was performed by the National Institute of Mental Health Psychoactive Drug Screening Program (NIMH PDSP) as described previously.[26] Briefly target compounds were dissolved in DMSO and subjected to a primary screen at 10,000 nM concentration. […] Additional experimental details are available in the NIMH PDSP assay protocol book.

[2] = biological target: T1, Alpha2C (Homo sapiens, UniProt P18825); assay: NIMH PDSP radioligand binding, Alpha2C
T1 sequence (P18825 1-462): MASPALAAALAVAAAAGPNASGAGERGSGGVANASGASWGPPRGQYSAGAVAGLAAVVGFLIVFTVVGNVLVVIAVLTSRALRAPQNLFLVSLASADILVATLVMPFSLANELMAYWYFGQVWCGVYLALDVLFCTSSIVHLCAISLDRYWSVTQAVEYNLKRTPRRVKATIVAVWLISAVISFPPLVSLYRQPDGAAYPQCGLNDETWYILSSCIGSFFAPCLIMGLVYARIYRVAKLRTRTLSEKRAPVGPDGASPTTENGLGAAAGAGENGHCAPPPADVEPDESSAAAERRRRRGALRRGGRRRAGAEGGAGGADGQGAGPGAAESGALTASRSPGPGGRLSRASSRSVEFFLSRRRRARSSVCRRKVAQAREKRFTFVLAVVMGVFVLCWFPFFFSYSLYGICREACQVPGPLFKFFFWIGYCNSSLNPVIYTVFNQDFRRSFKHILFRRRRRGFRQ
Experimental: as §1

[3] = biological target: KOR (Homo sapiens, UniProt P41145); assay: NIMH PDSP radioligand binding, KOR
KOR, sequence (P41145 whole entry): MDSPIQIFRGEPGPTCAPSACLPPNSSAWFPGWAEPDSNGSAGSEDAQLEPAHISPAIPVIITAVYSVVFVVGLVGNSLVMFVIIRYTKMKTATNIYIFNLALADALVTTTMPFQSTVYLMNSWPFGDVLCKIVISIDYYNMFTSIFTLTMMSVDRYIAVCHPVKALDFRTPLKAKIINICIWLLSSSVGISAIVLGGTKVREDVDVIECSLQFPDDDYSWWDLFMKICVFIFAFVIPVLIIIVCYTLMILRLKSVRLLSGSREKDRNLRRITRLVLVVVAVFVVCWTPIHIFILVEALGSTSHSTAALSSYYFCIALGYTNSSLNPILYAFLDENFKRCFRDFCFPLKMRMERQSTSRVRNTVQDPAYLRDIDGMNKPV
Experimental: as §1

[4] = biological target: MOR (Homo sapiens, UniProt P35372); assay: NIMH PDSP radioligand binding, MOR
Experimental: as §1

[5] = biological target: M1 (Homo sapiens, UniProt P11229); assay: NIMH PDSP radioligand binding, M1
M1, sequence (P11229 whole entry): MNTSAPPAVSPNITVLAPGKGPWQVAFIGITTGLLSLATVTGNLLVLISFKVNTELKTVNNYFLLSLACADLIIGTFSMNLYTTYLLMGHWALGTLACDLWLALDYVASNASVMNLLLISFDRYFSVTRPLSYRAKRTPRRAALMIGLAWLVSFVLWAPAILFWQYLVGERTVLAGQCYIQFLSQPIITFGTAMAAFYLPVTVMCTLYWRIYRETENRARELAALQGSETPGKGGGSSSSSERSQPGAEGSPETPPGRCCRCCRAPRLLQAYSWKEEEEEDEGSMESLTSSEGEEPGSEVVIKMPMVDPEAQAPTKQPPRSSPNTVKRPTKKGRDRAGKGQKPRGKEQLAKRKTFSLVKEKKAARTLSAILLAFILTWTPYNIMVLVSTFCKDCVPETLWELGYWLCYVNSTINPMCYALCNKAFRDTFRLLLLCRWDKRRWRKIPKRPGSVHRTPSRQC

[6] = biological target: M2 (Homo sapiens, UniProt P08172); assay: NIMH PDSP radioligand binding, M2
M2, sequence (P08172 whole entry): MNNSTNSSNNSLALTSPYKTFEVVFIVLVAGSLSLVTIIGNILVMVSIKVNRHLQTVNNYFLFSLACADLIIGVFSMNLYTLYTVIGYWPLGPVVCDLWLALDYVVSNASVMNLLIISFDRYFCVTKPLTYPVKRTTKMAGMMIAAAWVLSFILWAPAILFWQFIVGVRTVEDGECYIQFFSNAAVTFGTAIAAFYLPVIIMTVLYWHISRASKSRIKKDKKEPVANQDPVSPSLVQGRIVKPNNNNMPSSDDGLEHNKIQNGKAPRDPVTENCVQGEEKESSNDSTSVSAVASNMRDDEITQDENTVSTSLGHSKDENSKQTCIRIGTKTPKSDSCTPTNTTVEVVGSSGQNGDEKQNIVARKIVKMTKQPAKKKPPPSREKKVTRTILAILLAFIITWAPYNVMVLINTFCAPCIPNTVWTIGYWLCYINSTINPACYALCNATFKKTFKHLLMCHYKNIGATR

[7] = biological target: M3 (Homo sapiens, UniProt P20309); assay: NIMH PDSP radioligand binding, M3
M3, sequence (P20309 whole entry): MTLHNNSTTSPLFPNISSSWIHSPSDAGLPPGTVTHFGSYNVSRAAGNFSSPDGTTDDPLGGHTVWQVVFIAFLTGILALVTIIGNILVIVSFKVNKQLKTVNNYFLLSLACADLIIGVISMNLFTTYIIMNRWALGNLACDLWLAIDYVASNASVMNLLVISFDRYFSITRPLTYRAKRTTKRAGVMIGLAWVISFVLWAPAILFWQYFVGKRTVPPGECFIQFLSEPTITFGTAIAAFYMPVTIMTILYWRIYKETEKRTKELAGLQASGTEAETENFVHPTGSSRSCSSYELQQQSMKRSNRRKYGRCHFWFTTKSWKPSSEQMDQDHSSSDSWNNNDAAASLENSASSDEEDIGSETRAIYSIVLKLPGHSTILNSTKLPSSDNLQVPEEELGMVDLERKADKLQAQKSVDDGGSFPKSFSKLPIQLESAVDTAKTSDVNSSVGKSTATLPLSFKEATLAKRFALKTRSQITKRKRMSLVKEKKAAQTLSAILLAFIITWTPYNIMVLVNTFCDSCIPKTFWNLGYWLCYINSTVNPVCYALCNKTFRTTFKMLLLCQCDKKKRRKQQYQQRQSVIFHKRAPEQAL

[8] = biological target: M4 (Homo sapiens, UniProt P08173); assay: NIMH PDSP radioligand binding, M4
[9] = biological target: M5 (Homo sapiens, UniProt P08912); assay: NIMH PDSP radioligand binding, M5
M5, sequence (P08912 whole entry): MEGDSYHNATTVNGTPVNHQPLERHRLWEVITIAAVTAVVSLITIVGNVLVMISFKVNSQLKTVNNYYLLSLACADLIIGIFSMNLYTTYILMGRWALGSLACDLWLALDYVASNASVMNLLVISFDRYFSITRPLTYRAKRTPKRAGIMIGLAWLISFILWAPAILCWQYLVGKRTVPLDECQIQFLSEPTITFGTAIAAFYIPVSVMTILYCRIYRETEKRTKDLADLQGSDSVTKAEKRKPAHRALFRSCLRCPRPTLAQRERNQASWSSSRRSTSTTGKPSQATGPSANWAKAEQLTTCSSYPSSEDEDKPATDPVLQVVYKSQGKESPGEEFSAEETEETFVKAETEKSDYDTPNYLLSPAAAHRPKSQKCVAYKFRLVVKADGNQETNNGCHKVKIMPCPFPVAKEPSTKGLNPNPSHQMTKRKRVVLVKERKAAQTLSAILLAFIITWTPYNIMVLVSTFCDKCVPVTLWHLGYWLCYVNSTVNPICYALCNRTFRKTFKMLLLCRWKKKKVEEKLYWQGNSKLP

[10] = biological target: T2, DAT (Homo sapiens, UniProt Q01959); assay: NIMH PDSP radioligand binding, DAT
T2 sequence (Q01959 whole entry): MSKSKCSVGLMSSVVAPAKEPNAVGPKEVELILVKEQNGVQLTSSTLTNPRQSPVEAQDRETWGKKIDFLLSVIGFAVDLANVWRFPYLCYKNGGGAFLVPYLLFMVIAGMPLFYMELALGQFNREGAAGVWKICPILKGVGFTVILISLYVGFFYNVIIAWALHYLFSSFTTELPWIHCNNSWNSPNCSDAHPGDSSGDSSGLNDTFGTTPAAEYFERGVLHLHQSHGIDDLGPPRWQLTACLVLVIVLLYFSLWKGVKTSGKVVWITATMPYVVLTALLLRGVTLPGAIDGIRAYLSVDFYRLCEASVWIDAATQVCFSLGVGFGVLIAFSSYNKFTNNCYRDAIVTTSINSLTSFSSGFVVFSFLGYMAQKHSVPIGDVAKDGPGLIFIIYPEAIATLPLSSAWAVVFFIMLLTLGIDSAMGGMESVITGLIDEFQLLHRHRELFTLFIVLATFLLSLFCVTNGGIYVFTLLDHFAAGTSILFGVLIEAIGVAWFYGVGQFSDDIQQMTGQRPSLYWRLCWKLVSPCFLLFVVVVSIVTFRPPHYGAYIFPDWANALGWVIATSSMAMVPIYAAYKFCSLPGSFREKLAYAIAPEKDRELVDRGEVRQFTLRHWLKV
Experimental: as §1

[11] = biological target: T3, Sigma 2 (Rattus norvegicus, UniProt Q5U3Y7); assay: NIMH PDSP radioligand binding, Sigma 2
T3 sequence (Q5U3Y7 1-176): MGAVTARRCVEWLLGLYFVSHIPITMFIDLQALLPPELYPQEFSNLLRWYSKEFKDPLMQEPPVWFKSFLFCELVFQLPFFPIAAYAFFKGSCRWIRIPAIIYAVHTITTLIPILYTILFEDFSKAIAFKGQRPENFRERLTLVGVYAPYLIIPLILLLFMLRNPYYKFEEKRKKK
Experimental: as §1

[12] = biological target: T4, Human SERT (Homo sapiens, UniProt P31645); assay: Monoamine reuptake inhibition assay, SERT in HEK293 cells; format: cell-based
T4 construct: expressed in transfected cells; host or cells: HEK293
T4 sequence (P31645 whole entry): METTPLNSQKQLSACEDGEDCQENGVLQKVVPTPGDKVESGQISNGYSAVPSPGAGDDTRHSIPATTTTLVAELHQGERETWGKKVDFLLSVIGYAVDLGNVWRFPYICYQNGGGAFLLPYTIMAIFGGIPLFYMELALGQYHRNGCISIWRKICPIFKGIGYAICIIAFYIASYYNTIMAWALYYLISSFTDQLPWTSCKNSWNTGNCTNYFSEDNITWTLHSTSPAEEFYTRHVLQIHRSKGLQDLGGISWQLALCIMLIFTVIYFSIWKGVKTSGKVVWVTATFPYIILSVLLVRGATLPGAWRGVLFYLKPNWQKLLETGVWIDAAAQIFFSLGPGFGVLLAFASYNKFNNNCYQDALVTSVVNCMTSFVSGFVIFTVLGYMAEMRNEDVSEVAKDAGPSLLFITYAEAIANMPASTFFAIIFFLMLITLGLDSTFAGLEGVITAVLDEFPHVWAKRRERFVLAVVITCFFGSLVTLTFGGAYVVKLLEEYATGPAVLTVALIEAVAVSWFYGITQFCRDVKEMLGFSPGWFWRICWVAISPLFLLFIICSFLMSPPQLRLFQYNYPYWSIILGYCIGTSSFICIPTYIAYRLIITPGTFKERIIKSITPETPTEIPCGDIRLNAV
Experimental: (§2) Monoamine reuptake inhibition assays were performed via the NIMH PDSP as previously described.[28] In brief, the neurotransmitter transporter uptake assay kit (R8174) (Molecular Devices) was used. Human monoamine transporters (DAT, NET and SERT) were stably expressed in HEK293 cells. Assay buffer consisted of 20 mM HEPES, 1x HBSS at pH 7.4. Cells were plated in Pol-L-Lys (PLL) coated 384-well black clear bottom cell culture plates with a density of 15,000 cells/well. Cells were incubated for at least 6 h prior to assay. Media was removed and replaced with 20 μL assay buffer and 5 μL of drug or positive control (cocaine or nisoxetine) as a 5X stock. Cells were incubated for 30 min at 37°C. 25 μL of dye solution was then added and following an additional 30 min incubation (at 37°C) fluorescence intensity was measured using a FlexStation II (bottom read mode, excitation wavelength = […], emission = 520 nM with a cutoff of 510 nM). […] Additional details are available in the NIMH PDSP assay protocol book.

[13] = system: PCP site within the NMDAR channel;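 note: IC50 by nonlinear regression of percent specific binding versus log concentration, Ki from IC50 via Cheng-Prusoff, raw counts in CPM, duplicates repeated at least three times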
Experimental: (§3) The reaction was terminated by vacuum filtration using a 24 well cell harvester (Brandel, Gaithersburg, MD) over presoaked GF/B glass fiber filters (Brandel, Gaithersburg, MD). Filters were washed with room temperature assay buffer (3 x 5 mL). […] IC50 values were determined in Graphpad Prism 5.0 using non-linear regression with log-concentration plotted against percent specific binding. […] Ki values were calculated using the equation of Cheng and Prusoff [24]. […] Protein concentration was determined via the Bradford method using Coomassie protein assay reagent (Sigma, USA) [25] with rat albumin (Sigma, USA) as standard. Experiments were performed in duplicate and repeated a minimum of three times.

[14] = system: NMDAR; set-up: method as in earlier work; conditions: [3H]-TCP; cited from earlier work
[15] = biological target: T2, DAT; assay: Monoamine reuptake inhibition assay, DAT in HEK293 cells; format: cell-based; set-up: expressed in transfected cells; host or cells: HEK293; conditions: for Hill slope DAT reuptake inhibition: HEK293 cells
Experimental: as §2

[16] = biological target: T5, NET (Homo sapiens, UniProt P23975); assay: Monoamine reuptake inhibition assay, NET in HEK293 cells; format: cell-based; set-up: expressed in transfected cells; host or cells: HEK293; conditions: for Hill slope NET reuptake inhibition: HEK293 cells
T5 sequence (P23975 whole entry): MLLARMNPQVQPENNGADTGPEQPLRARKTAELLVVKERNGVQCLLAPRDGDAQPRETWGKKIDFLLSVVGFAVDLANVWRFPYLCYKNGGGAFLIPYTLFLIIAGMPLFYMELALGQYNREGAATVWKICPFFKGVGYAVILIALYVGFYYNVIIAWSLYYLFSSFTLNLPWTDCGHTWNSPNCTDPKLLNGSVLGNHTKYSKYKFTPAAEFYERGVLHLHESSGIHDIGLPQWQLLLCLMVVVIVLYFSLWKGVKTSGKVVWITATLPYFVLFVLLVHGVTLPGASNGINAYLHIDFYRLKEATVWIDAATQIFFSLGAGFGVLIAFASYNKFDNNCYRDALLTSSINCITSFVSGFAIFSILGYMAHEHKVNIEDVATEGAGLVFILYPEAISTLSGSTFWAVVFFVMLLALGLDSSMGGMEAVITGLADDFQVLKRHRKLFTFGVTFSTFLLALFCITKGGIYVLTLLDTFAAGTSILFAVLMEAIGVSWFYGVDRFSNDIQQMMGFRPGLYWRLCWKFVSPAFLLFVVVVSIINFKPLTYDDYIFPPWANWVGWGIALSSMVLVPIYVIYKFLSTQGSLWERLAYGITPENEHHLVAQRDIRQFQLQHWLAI
Experimental: as §2

[17] = biological target: PCP site within the NMDAR channel; assay: NMDAR binding, [3H]-MK-801 displacement in rat forebrain homogenate; conditions: for Ki: read-out: Ki ± SEM, [3H]-(+)-MK-801, rat forebrain, Cheng-Prusoff; for [3H]-MK-801 binding counts (Count1-3): raw counts, three counts;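 for all read-outs here: IC50 by nonlinear regression of percent specific binding versus log concentration, Ki from IC50 via Cheng-Prusoff, raw counts in CPM, duplicates repeated at least three times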
Experimental: as §3

[18] = biological target: NMDAR; conditions: [3H]-MK-801, rat cortex and hippocampus membranes; read-out: NMDAR affinity; cited from earlier work
[19] = system: NMDA receptor; assay: NMDA receptor-mediated fEPSP (NMDAR-fEPSP) in CA1 of hippocampal slices; format: cell-based, rat; conditions: 10 μM
Experimental: Male Wistar rats (Crl:Wi; Charles River, UK) aged 9–10 wk were sacrificed by neck vertebral dislocation (schedule 1 method) according to the United Kingdom (Scientific Procedures) Act of 1986. […] The brain was cut parasagittally into 400 μm sections and hippocampal slices were removed, stored and placed in a submerged recording chamber at 28–30°C. Recordings of synaptic activity were made, analyzed and presented as described. A bipolar electrode was used to deliver stimuli (0.03 Hz) to the Schaffer collateral pathway to enable recording of field excitatory synaptic potentials (fEPSPs) using a glass microelectrode positioned in the stratum radiatum of area CA1. […] After 30 min of stable control responses, 1 and 10 μM solutions of the individual compounds were added to the perfusate for 3–12 h while recording the amplitude and area of the NMDAR-fEPSP on-line using WinLTP [31]. Single exponential curves were fitted to the graphs and curves extrapolated to show likely half-times and minimum plateau responses achieved with each concentration of the compounds. Raw data for all fEPSP experiments are provided as supporting information (S2, S3 and S4 Files).

[20] = biological target: H1 (Homo sapiens, UniProt P35367); assay: NIMH PDSP radioligand binding, H1
Experimental: as §1

[21] = biological target: H3 (Homo sapiens, UniProt Q9Y5N1); assay: NIMH PDSP radioligand binding, H3
H3, sequence (Q9Y5N1 whole entry): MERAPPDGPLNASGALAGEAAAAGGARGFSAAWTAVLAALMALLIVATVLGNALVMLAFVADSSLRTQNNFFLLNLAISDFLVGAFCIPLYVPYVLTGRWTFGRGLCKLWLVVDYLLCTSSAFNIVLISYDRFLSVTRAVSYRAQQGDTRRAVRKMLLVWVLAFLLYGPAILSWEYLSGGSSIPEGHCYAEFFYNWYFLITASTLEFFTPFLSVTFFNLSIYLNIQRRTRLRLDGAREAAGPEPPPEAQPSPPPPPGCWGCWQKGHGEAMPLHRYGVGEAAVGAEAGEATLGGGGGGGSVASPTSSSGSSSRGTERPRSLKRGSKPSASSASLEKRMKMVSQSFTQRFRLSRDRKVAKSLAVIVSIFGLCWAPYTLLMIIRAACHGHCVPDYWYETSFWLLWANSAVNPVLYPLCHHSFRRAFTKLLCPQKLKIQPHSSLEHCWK
Experimental: as §1

[22] = biological target: T5, NET; assay: NIMH PDSP radioligand binding, NET
Experimental: as §1

Compound | Ki [5] | Ki [6] | Ki [7] | Ki [9] | Ki [10] | Ki [11] | IC50 [12] | IC50 [13] | IC50 [15] | Hill slope DAT reuptake inhibition [15] | IC50 [16] | Hill slope NET reuptake inhibition [16] | Ki [17] | also measured
Clc1ccccc1C(Cc1ccccc1)N1CCCCC1 (centres unmarked) [2-Cl-DPH, 2-Cl-diphenidine] | 278 nM | 910 nM | 615 nM | 291 nM | 357 nM | 474 nM | > 10000 nM | 14.6 ± 2.1 nM | 10500 nM | 0.65 | 27100 nM | 1.02 | 9.3 ± 1.3 nM | Ki [1]: 2690 nM; Ki [2]: 1820 nM; Ki [3]: 642 nM; Ki [4]: 2060 nM; affinities at muscarinic sites relative to NMDAR ([5]; less than for NMDAR): 30 fold; Ki [8]: 828 nM; NMDAR affinity [14]: pM affinity
CNC1(c2ccccc2Cl)CCCCC1=O (centres unmarked) [Ketamine, ketamine, reference compound] |  |  |  |  |  |  |  | 508 ± 30.1 nM |  |  |  |  | 324 ± 19.2 nM | 
c1ccc(C[C@@H](c2ccccc2)N2CCCCC2)cc1 [(S-)-DPH] |  |  |  |  |  |  |  |  |  |  |  |  |  | Ki [18]: 120 nM
CC12CC3CC(C)(C1)CC(N)(C3)C2 [Memantine, memantine hydrochloride] |  |  |  |  |  |  |  | 594 ± 41.3 nM |  |  |  |  | 378 ± 26.3 nM | [3H]-MK-801 binding counts (Count1-3) ([17]; Assay 6, memantine concentration 1.00E-04): 54.75 and 56.13 and 57.01; [3H]-MK-801 binding counts (Count1-3) ([17]; Assay 6, memantine concentration 1.00E-05): 80 and 85.76 and 84.26; [3H]-MK-801 binding counts (Count1-3) ([17]; Assay 6, memantine concentration 1.00E-06): 302 and 309.15 and 302.79; [3H]-MK-801 binding counts (Count1-3) ([17]; Assay 6, memantine concentration 1.00E-07): 630.88 and 668.92 and 629.83; [3H]-MK-801 binding counts (Count1-3) ([17]; Assay 6, memantine concentration 1.00E-08): 740.13 and 745.68 and 749.23; [3H]-MK-801 binding counts (Count1-3) ([17]; Assay 6, memantine concentration 1.00E-09): 755.01 and 781.68 and 787.36; [3H]-MK-801 binding counts (Count1-3) ([17]; Assay 6, memantine concentration 1.00E-10): 758.88 and 769.56 and 771.23; [3H]-MK-801 binding counts (Count1-3) ([17]; Assay 6 duplicate, memantine concentration 1.00E-04): 49.38 and 49.13 and 46.88; [3H]-MK-801 binding counts (Count1-3) ([17]; Assay 6 duplicate, memantine concentration 1.00E-05): 91.38 and 89.51 and 86.76; [3H]-MK-801 binding counts (Count1-3) ([17]; Assay 6 duplicate, memantine concentration 1.00E-06): 307.63 and 313.65 and 307.54; [3H]-MK-801 binding counts (Count1-3) ([17]; Assay 6 duplicate, memantine concentration 1.00E-07): 637.88 and 639.55 and 638.34; [3H]-MK-801 binding counts (Count1-3) ([17]; Assay 6 duplicate, memantine concentration 1.00E-08): 730.14 and 762.94 and 750.86; [3H]-MK-801 binding counts (Count1-3) ([17]; Assay 6 duplicate, memantine concentration 1.00E-09): 757.26 and 761.06 and 761.99; [3H]-MK-801 binding counts (Count1-3) ([17]; Assay 6 duplicate, memantine concentration 1.00E-10): 762.51 and 773.44 and 773.61
NC(CCCP(=O)(O)O)C(=O)O [D-AP5, reference compound] |  |  |  |  |  |  |  |  |  |  |  |  |  | small persistent deflection remaining of the NMDAR-fEPSP [19]: < 20%
COc1ccc(C(Cc2ccccc2)N2CCCCC2)cc1 (centres unmarked) [4-MXP, 4-methoxy-diphenidine] | 2430 nM | 1620 nM | 2400 nM | 2760 nM | 157 nM | 564 nM | 19000 nM | 724 ± 69.9 nM | 2230 nM | 0.96 | 22500 nM | 1.75 | 461 ± 44.5 nM | Ki [2]: 2510 nM; Ki [20]: 4530 nM; Ki [21]: 556 nM; affinity at DAT relative to NMDAR ([10]; higher at DAT): ~ 2.5 fold; Ki [22]: 2700 nM; Hill slope SERT reuptake inhibition ([12]; HEK293 cells): 1.12
c1ccc(C[C@H](c2ccccc2)N2CCCCC2)cc1 [(R)-DPH] |  |  |  |  |  |  |  |  |  |  |  |  |  | Ki [18]: 5250 nM
COc1cccc(C(Cc2ccccc2)N2CCCCC2)c1 (centres unmarked) [3-MXP, 3-methoxy-diphenidine] | 2400 nM | 2970 nM | 2300 nM | 1120 nM | 88 nM | 633 nM | > 10000 nM | 30.3 ± 2.6 nM | 587 nM | 0.92 | 2710 nM | 0.95 | 19.3 ± 1.7 nM | Ki [20]: 2030 nM; Ki [21]: 1470 nM; Ki [3]: 2260 nM; Ki [22]: 325 nM
